Source: US5830996A, “Cyclic peptide antitumor agent from an ascidian” (University of Utah Research Foundation, priority 1996, dated 1998)

Legend:
P388 tumor cells = test: In vivo P388 tumor life span test in CDF1 mice; details: days 1, 5, 9, CDF1 mice with P388
Procedure: Vitilevuamide was also screened for in vivo activity by injecting CDF1 mice intraperitoneally on day 0 with 1×10^6 P388 tumor cells. Five animals were randomly assigned to a group. On days 1, 5, and 9 after tumor implantation, these mice were treated intraperitoneally with either a placebo or the drug. Animals were checked twice daily, and the day of death of each mouse was recorded. A positive drug response is defined as a greater than 25% increase in the mean life span (% ILS) relative to the placebo control.

A498 cells = details: MTT assay
Procedure: (§1) Vitilevuamide prepared according to the procedure of Example 1 or Example 2 was tested against a panel of human tumor cell lines: (a) a colon cancer cell line, HCT 116 (obtained from ATCC), M. Brattain, 41 Cancer Res. 1751 (1986); (b) an adenocarcinoma cell line, A549, D. J. Giard, 51 J. Nat'l Cancer Inst. 1417 (1973); (c) a malignant melanoma cell line, SK-MEL-5, H. F Oteggen, 41 J. Nat'l Cancer Inst. 827 (1968); and (d) a kidney carcinoma cell line, A498, S. Aaronson, 51 J. Nat'l Cancer Inst. 1417 (1973). Cells were cultured according to the procedure of M. C. Alley et al., 48 Cancer Res. 589 (1988), hereby incorporated by reference.
(§2) Screening was performed in a 96-well microtiter plate by the standard 3-[4,5-dimethylthiazol-2-yl]-[…] bromide; thiazolyl blue (MTT) cell inhibition assay adopted for anticancer drug screening at NIH. J. Carmichael et al., 47 Cancer Res. 936 (1987), hereby incorporated by reference. Positive controls were run simultaneously.

A549 cells = details: MTT assay
Procedure: as §1, §2

HCT 116 cells = details: MTT assay
Procedure: as §1, §2

SK-MEL-5 cells = details: MTT assay
Procedure: as §1, §2

C6 rat glioma cells = test: Tubulin inhibition assay (db-cAMP rounding, MTT readout); type: cell-based; details: 4 h treatment then 1 mM db-cAMP, colchicine 25 μg/mL positive control
Procedure: C6 rat glioma cells (ATCC CCL107) were seeded into the wells of a microtiter plate and then incubated for 1 day. The cells were then treated with a range of vitilevuamide concentrations, normally 5 orders of magnitude, and incubated for 4 additional hours. The cells were then treated for 1 hour with 1 mM dibuteryl-cAMP (db-cAMP), which causes the C6 cells to assume a spherical morphology ("rounding") within 60 minutes due to polymerization of tubulin. Cells that are exposed to tubulin-active compounds, on the other hand, display a different morphological change--flattening and adherence to the substrate. All of the wells were then jet aspirated, and the wells were resupplied with fresh medium containing MTT. The glioma cells metabolize MTT to a dark formazan dye. P. R. Twentyman & M. Luscombe, 56 Br. J. Cancer 279 (1987); F. Denizot & R. Lang, 89 J. Immunol. Methods 271 (1986). Following 4 hours of incubation, absorbance was measured at 450 nm. Colchicine (25 μg/mL) was used as the positive control.

Compound: C=C1NC(=O)[C@H]([C@@H](C)CC)NC(=O)C2CSCC(NC(=O)CCC(=O)O)C(=O)N[C@H](Cc3ccccc3)C(=O)N[C@H](C)C(=O)NC(CC(C)CC)C(=O)N[C@@H](C(=O)N[C@H](Cc3ccccc3)C(=O)N3CCC[C@H]3C(=O)N2)[C@@H](C)OC(=O)[C@H](CO)NC(=O)C(C(O)COC)N(C)C(=O)[C@@H](C(C)C)NC(=O)C(CC(C)CC)NC1=O (stereo partly drawn) [vitilevuamide]
- % ILS (increase in mean life span relative to placebo) (P388 tumor cells; 0.006 mg/kg/dose i.p.): 8%
- % ILS (increase in mean life span relative to placebo) (P388 tumor cells; 0.012 mg/kg/dose i.p.): 20%
- % ILS (increase in mean life span relative to placebo) (P388 tumor cells; 0.03 mg/kg/dose i.p.): 70%
- % ILS (increase in mean life span relative to placebo) (P388 tumor cells; 0.06 mg/kg/dose i.p.): -13%
- toxicity remark at dose (P388 tumor cells; 0.06 mg/kg/dose i.p.): toxic
- % ILS (increase in mean life span relative to placebo) (P388 tumor cells; 0.13 mg/kg/dose i.p.): -45%
- toxicity remark at dose (P388 tumor cells; 0.13 mg/kg/dose i.p.): toxic
- 50% inhibitory concentration (IC50) (A498 cells): 5 µg/mL
- 50% inhibitory concentration (IC50) (A549 cells): 0.2 µg/mL
- 50% inhibitory concentration (IC50) (HCT 116 cells): 10 ng/mL
- 50% inhibitory concentration (IC50) (SK-MEL-5 cells): 0.5 µg/mL
- concentration showing the same effect as colchicine (C6 rat glioma cells): 4 µg/mL
